Patent US9365522B2, “Pyrazole amide derivative” (AMGEN INC., priority 2015, dated 2016)

Target: T1, human RORγ-LBD (Homo sapiens, UniProt P51449)
T1 construct: made in house; host or cells: E. coli (BL-21)
T1 sequence (P51449 262-518): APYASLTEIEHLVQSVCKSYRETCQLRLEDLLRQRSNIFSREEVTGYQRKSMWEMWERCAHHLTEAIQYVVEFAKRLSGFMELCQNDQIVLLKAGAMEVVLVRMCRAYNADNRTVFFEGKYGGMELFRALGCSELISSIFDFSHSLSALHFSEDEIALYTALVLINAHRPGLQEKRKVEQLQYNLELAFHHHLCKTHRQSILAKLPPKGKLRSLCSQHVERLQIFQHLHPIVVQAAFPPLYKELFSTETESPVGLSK
Assay: ROR gamma coactivator peptide recruitment Alphascreen assay (RORγ-LBD binding to GRIP1 coactivator peptide)
Type: biochemical
Conditions: 5 nM human RORγ-LBD, 30 nM 7-β-hydroxycholesterol, 50 nM biotinylated GRIP1 coactivator peptide, overnight incubation at room temperature; read-out: result (pIC50, RORγ coactivator peptide recruitment Alphascreen assay) (converted)
How it was run: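 Alphascreen proximity read-out after overnight room-temperature incubation, yielding pIC50 from 1-in-2 compound series (2.5% DMSO final). Mixture: 50 nM biotin-GRIP1 peptide, 30 nM 7-β-hydroxycholesterol agonist, 5 nM recombinant 6×His:Flag human RORγ-LBD (aa 262-518), 50 mM HEPES pH 7.4.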

Row | Structure (SMILES) | IC50
1 | C[C@@H]1C[C@@H](n2ncc(C(=O)N(CC(=O)c3c(Cl)cncc3Cl)CC3(C)CCC3)c2C(F)(F)F)CC[C@@H]1C(=O)O [Example 782, (1S,2R,4S)-4-(4-((2-(3,5-dichloro-4-pyridinyl)-2-oxoethyl)((1-methylcyclobutyl)methyl)carbamoyl)-5-(trifluoromethyl)-1H-pyrazol-1-yl)-2-methylcyclohexanecarboxylic acid] | 3.98 nM
2 | C[C@H](C(=O)O)[C@H]1CC[C@@H](n2ncc(C(=O)N(CC(=O)c3c(Cl)cncc3Cl)Cc3cc(F)cc(F)c3)c2C(F)(F)F)CC1 [Example 786, 2-(cis-4-(4-((2-(3,5-dichloro-4-pyridinyl)-2-oxoethyl)(3,5-difluorobenzyl)carbamoyl)-5-(trifluoromethyl)-1H-pyrazol-1-yl)cyclohexyl)propanoic acid] | 34.7 nM
3 | C[C@@H]1C[C@@H](n2ncc(C(=O)N(CC(=O)c3c(Cl)cccc3Cl)[C@H]3C[C@@H]4[C@H](C3)C4(C)C)c2C(F)(F)F)CC[C@@H]1C(=O)O [Example 787, (1S,2R,4S)-4-(4-((2-(2,6-dichlorophenyl)-2-oxoethyl)((1R,3r,5S)-6,6-dimethylbicyclo[3.1.0]hex-3-yl)carbamoyl)-5-(trifluoromethyl)-1H-pyrazol-1-yl)-2-methylcyclohexanecarboxylic acid] | 2.09 nM
4 | C[C@@H]1C[C@@H](n2ncc(C(=O)N(CC(=O)c3c(Cl)cncc3Cl)CC3(C)CC3)c2C(F)(F)F)CC[C@@H]1C(=O)O [Example 788, (1S,2R,4S)-4-(4-((2-(3,5-dichloro-4-pyridinyl)-2-oxoethyl)((1-methylcyclopropyl)methyl)carbamoyl)-5-(trifluoromethyl)-1H-pyrazol-1-yl)-2-methylcyclohexanecarboxylic acid] | 17.4 nM
5 | C[C@]1(CC(=O)O)CC[C@H](n2ncc(C(=O)N(CC(=O)c3c(Cl)cncc3Cl)Cc3cc(F)cc(F)c3)c2C(F)(F)F)CC1 [Example 789, (trans-4-(4-((2-(3,5-dichloro-4-pyridinyl)-2-oxoethyl)(3,5-difluorobenzyl)carbamoyl)-5-(trifluoromethyl)-1H-pyrazol-1-yl)-1-methylcyclohexyl)acetic acid] | 2.09 nM
6 | C[C@]1(CC(=O)O)CC[C@@H](n2ncc(C(=O)N(CC(=O)c3c(Cl)cncc3Cl)Cc3cc(F)cc(F)c3)c2C(F)(F)F)CC1 [Example 790, (cis-4-(4-((2-(3,5-dichloro-4-pyridinyl)-2-oxoethyl)(3,5-difluorobenzyl)carbamoyl)-5-(trifluoromethyl)-1H-pyrazol-1-yl)-1-methylcyclohexyl)acetic acid] | 34.7 nM
7 | CC(C)(C)CN(CC(=O)c1c(Cl)cncc1Cl)C(=O)c1cnn([C@H]2CC[C@](C)(CC(=O)O)CC2)c1C(F)(F)F [Example 791, (trans-4-(4-((2-(3,5-dichloro-4-pyridinyl)-2-oxoethyl)(2,2-dimethylpropyl)carbamoyl)-5-(trifluoromethyl)-1H-pyrazol-1-yl)-1-methylcyclohexyl)acetic acid] | 5.25 nM
8 | CC(C)(C)CN(CC(=O)c1c(Cl)cncc1Cl)C(=O)c1cnn([C@H]2CC[C@@](C)(CC(=O)O)CC2)c1C(F)(F)F [Example 792, (cis-4-(4-((2-(3,5-dichloro-4-pyridinyl)-2-oxoethyl)(2,2-dimethylpropyl)carbamoyl)-5-(trifluoromethyl)-1H-pyrazol-1-yl)-1-methylcyclohexyl)acetic acid] | 102 nM
9 | C[C@]1(C(=O)O)CC[C@H](n2ncc(C(=O)N(CC(=O)c3c(Cl)ccc(F)c3Cl)CC3(C(F)(F)F)CC3)c2C(F)(F)F)CC1 [Example 798, (1r,4r)-4-(4-((2-(2,6-dichloro-3-fluorophenyl)-2-oxoethyl)((1-(trifluoromethyl)cyclopropyl)methyl)carbamoyl)-5-(trifluoromethyl)-1H-pyrazol-1-yl)-1-methylcyclohexanecarboxylic acid] | 3.16 nM
10 | C[C@]1(C(=O)O)CC[C@H](n2ncc(C(=O)N(CC(=O)c3c(Cl)cncc3Cl)CC3(C(F)(F)F)CCC3)c2C(F)(F)F)CC1 [Example 799, trans-4-(4-((2-(3,5-dichloro-4-pyridinyl)-2-oxoethyl)((1-(trifluoromethyl)cyclobutyl)methyl)carbamoyl)-5-(trifluoromethyl)-1H-pyrazol-1-yl)-1-methylcyclohexanecarboxylic acid] | 3.89 nM
11 | C[C@]1(C(=O)O)CC[C@H](n2ncc(C(=O)N(CC(=O)c3c(Cl)cncc3Cl)CC3(CF)CCC3)c2C(F)(F)F)CC1 [Example 800, trans-4-(4-((2-(3,5-dichloro-4-pyridinyl)-2-oxoethyl)((1-(fluoromethyl)cyclobutyl)methyl)carbamoyl)-5-(trifluoromethyl)-1H-pyrazol-1-yl)-1-methylcyclohexanecarboxylic acid] | 3.02 nM
12 | Cc1cc(Cl)c(C(=O)CN(CC2CCCCC2)C(=O)c2cnn([C@H]3CC[C@](C)(C(=O)O)CC3)c2C(F)(F)F)c(Cl)n1 [Example 801, trans-4-(4-((cyclohexylmethyl)(2-(2,4-dichloro-6-methyl-3-pyridinyl)-2-oxoethyl)carbamoyl)-5-(trifluoromethyl)-1H-pyrazol-1-yl)-1-methylcyclohexanecarboxylic acid] | 8.51 nM
13 | C[C@@H]1C[C@@H](n2ncc(C(=O)N(CC(=O)c3c(Cl)cncc3Cl)CC(C)(C)C(F)(F)F)c2C(F)(F)F)CC[C@@H]1C(=O)O [Example 802, (1S,2R,4S)-4-(4-((2-(3,5-dichloro-4-pyridinyl)-2-oxoethyl)(3,3,3-trifluoro-2,2-dimethylpropyl)carbamoyl)-5-(trifluoromethyl)-1H-pyrazol-1-yl)-2-methylcyclohexanecarboxylic acid] | 3.02 nM
14 | CC(C)CCN(CC(=O)c1c(Cl)cccc1Cl)C(=O)c1cnn([C@H]2CC[C@H](C(=O)O)[C@H](C)C2)c1C(F)(F)F [Example 804, (1S,2R,4S)-4-(4-((2-(2,6-dichlorophenyl)-2-oxoethyl)(3-methylbutyl)carbamoyl)-5-(trifluoromethyl)-1H-pyrazol-1-yl)-2-methylcyclohexanecarboxylic acid] | 53.7 nM

The next lines start with the values.

Row | IC50 | Structure (SMILES)
15 | 7.59 nM | C[C@H](C(=O)O)[C@H]1CC[C@H](n2ncc(C(=O)N(CC(=O)c3c(Cl)cncc3Cl)Cc3cc(F)cc(F)c3)c2C(F)(F)F)CC1 [Example 780, 2-(trans-4-(4-((2-(3,5-dichloro-4-pyridinyl)-2-oxoethyl)(3,5-difluorobenzyl)carbamoyl)-5-(trifluoromethyl)-1H-pyrazol-1-yl)cyclohexyl)propanoic acid]
16 | 1.55 nM | C[C@@H]1C[C@@H](n2ncc(C(=O)N(CC(=O)c3c(Cl)cccc3Cl)CC3(C)CCC3)c2C(F)(F)F)CC[C@@H]1C(=O)O [Example 781, (1S,2R,4S)-4-(4-((2-(2,6-dichlorophenyl)-2-oxoethyl)((1-methylcyclobutyl)methyl)carbamoyl)-5-(trifluoromethyl)-1H-pyrazol-1-yl)-2-methylcyclohexanecarboxylic acid]
17 | 3.89 nM | Cc1cc(Cl)c(C(=O)CN(C[C@@H]2CCC(C)(C)O2)C(=O)c2cnn([C@H]3CC[C@](C)(C(=O)O)CC3)c2C(F)(F)F)c(Cl)c1 [Example 783, trans-4-(4-((2-(2,6-dichloro-4-methylphenyl)-2-oxoethyl)(((2S)-5,5-dimethyltetrahydro-2-furanyl)methyl)carbamoyl)-5-(trifluoromethyl)-1H-pyrazol-1-yl)-1-methylcyclohexanecarboxylic acid]
18 | 25.1 nM | C[C@@H]1C[C@H](n2ncc(C(=O)N(CC(=O)c3c(Cl)cncc3Cl)CC(C)(C)C)c2C(F)(F)F)CC[C@H]1C(=O)O [Example 793, (1R,2R,4R)-4-(4-((2-(3,5-dichloro-4-pyridinyl)-2-oxoethyl)(2,2-dimethylpropyl)carbamoyl)-5-(trifluoromethyl)-1H-pyrazol-1-yl)-2-methylcyclohexanecarboxylic acid]
19 | 63.1 nM | CC(C)CCN(CC(=O)c1c(Cl)cncc1Cl)C(=O)c1cnn([C@H]2CC[C@H](C(=O)O)[C@H](C)C2)c1C(F)(F)F [Example 803, (1S,2R,4S)-4-(4-((2-(3,5-dichloro-4-pyridinyl)-2-oxoethyl)(3-methylbutyl)carbamoyl)-5-(trifluoromethyl)-1H-pyrazol-1-yl)-2-methylcyclohexanecarboxylic acid]
20 | 11.2 nM | Cc1cc(F)c(C(=O)CN(C[C@]2(C)CCCO2)C(=O)c2cnn([C@H]3CC[C@](C)(C(=O)O)CC3)c2C(F)(F)F)c(Cl)c1 [Example 805, trans-4-(4-((2-(2-chloro-6-fluoro-4-methylphenyl)-2-oxoethyl)(((2S)-2-methyltetrahydro-2-furanyl)methyl)carbamoyl)-5-(trifluoromethyl)-1H-pyrazol-1-yl)-1-methylcyclohexanecarboxylic acid]
21 | 102 nM | Cc1cc(F)c(C(=O)CN(C[C@@]2(C)CCCO2)C(=O)c2cnn([C@H]3CC[C@](C)(C(=O)O)CC3)c2C(F)(F)F)c(Cl)c1 [Example 806, trans-4-(4-((2-(2-chloro-6-fluoro-4-methylphenyl)-2-oxoethyl)(((2R)-2-methyltetrahydro-2-furanyl)methyl)carbamoyl)-5-(trifluoromethyl)-1H-pyrazol-1-yl)-1-methylcyclohexanecarboxylic acid]
22 | 186 nM | C[C@]1(C(=O)O)CC[C@H](n2ncc(C(=O)N(CC(=O)c3c(Cl)cncc3Cl)C[C@H]3CCCO3)c2C(F)(F)F)CC1 [Example 808, trans-4-(4-((2-(3,5-dichloro-4-pyridinyl)-2-oxoethyl)((2R)-tetrahydro-2-furanylmethyl)carbamoyl)-5-(trifluoromethyl)-1H-pyrazol-1-yl)-1-methylcyclohexanecarboxylic acid]
